No end group written: not given here.
How the values were obtained:
[1] = test system: A549 (human lung adenocarcinoma, ATCC CCL-185); assay type: cell-based
Experimental: (§1) The toxic effect was evaluated indirectly using the colorimetric MTT assay (3-[4,5-dimethylthiazol-2-yl]-2,5-diphenyl tetrazolium bromide, Thermo Fisher Scientific Inc, Massachusetts, USA) on A549 (human lung adenocarcinoma, ATCC CCL-185) and RAW 264.7 (murine macrophage-like ATCC TIB-71) cell lines. Cell lines were kindly provided by Instituto de Virología e Innovaciones Tecnológicas (IVIT), (INTA-CONICET, Buenos Aires, Argentina).
(§2) For the assay, A549 cells were seeded in 96-well plates at a density of 1 × 10^4 cells per well, while RAW 264.7 cells were seeded at a density of 5 × 10^4 cells per well. The plates were incubated for 24 h at 37 °C with 5% CO^2 to allow cell adhesion. The peptide P6.2 was dissolved in distilled water at a stock concentration of 10.24 mg/mL, and serial dilutions were made in RPMI-1640 medium supplemented with 10% fetal bovine serum (FBS, Internegocios S.A., Mercedes, Argentina). The concentrations used to assess P6.2 toxicity were the same as those previously employed in bacterial studies to determine the minimum inhibitory concentration (MIC) in antimicrobial activity assays. For the A549 cell line, P6.2 concentrations ranged from 4 µg/mL to 1024 µg/mL using serial dilutions in culture medium. For the RAW 264.7 cells, P6.2 concentrations ranged from 256 µg/mL to 8 µg/mL, with the concentration range adjusted based on preliminary results obtained from the A549 cell line.
(§3) Peptides were added and plates were incubated for 24 h at 37 °C in a 5% CO2 atmosphere. After incubation, the culture medium was removed, and the cells were washed with PBS (Phosphate Buffered Saline pH 7.2) to remove any remnants of the treatments. Next, 100 µL of MTT solution (0.5 mg/mL in PBS) was added to each well, and the plates were incubated for 0.5 to 3 h at 37 °C. During this period, viable cells reduced MTT, forming visible formazan crystals under a light field microscope (Zeiss Primovent, Oberkochen, Germany), indicating the cell metabolism of the compound.
(§4) At the end of the incubation, the supernatant was removed, and 200 µL of DMSO was added to each well to dissolve the formazan crystals. The plates were shaken to homogenize the contents, and absorbance was measured at 570 nm using a microplate reader (RT2100, Rayto Life and Analytical Sciences Co., Ltd, Shenzhen, China). Triplicates were run for each treatment. Cell viability was calculated by setting the absorbance value obtained for untreated control cells as 100% viability.

[2] = test system: RAW 264.7 (murine macrophage-like ATCC TIB-71); assay type: cell-based
Experimental: as §1, §2, §3, §4

P. aeruginosa M13513 [3] = assay: Inhibition of biofilm formation (crystal violet); assay type: cell-based, Pseudomonas aeruginosa; details: sub-MIC concentrations (1/8 to 1/2 of the MIC), 24 h
Experimental: The assessment of biofilm inhibition was carried out using 96-well flat-bottom polystyrene plates. Antimicrobial agents were diluted in Mueller–Hinton broth through a two-fold serial dilution and subsequently inoculated with a fresh bacterial culture to obtain a final concentration of 5 × 10^5 CFU/mL, with a total well volume of 100 µL. The plates were then incubated at 37 °C for 24 h. Bacteria cultured without the peptide served as the control. To evaluate biofilm formation following peptide exposure, the supernatant was carefully removed, and the wells were washed twice with 100 µL of saline solution to eliminate any non-adherent cells. The remaining biofilm was fixed by adding 100 µL of methanol for 15 min, followed by staining with 100 µL of 1% (v/v) crystal violet ( Sigma-Aldrich, Massachusetts, USA) for 5 min. After staining, the excess dye was discarded, and the wells were rinsed twice with 200 µL of distilled water before allowing the plate to dry at 37 °C for 30 min. Finally, 100 µL of 33% acetic acid was added to each well, and the samples were homogenized by gentle agitation. The absorbance was then measured at 595 nm using a microplate reader (RT2100, Rayto Life and Analytical Sciences Co., Ltd., Shenzhen, China).

P. aeruginosa M13513 [4] = assay: Synergy by time-kill kinetic assay; assay type: cell-based, Pseudomonas aeruginosa; details: P6.2 and meropenem both at 0.5× MIC, synergy = ≥2-log10 decrease in CFU/mL vs most active constituent after 24 h
Experimental: The possible synergistic interaction between P6.2 and meropenem was assessed through time–kill kinetic assays. These experiments were conducted in 50 mL tubes with a final volume of 10 mL. A log-phase culture of P. aeruginosa M13513 was obtained and subsequently diluted in CAMHB to achieve a final bacterial concentration of 5 × 10^6 CFU/mL. Both P6.2 and meropenem were tested individually and in combination at 0.5× MIC (minimum inhibitory concentration). Untreated bacterial cultures served as controls.
The samples were incubated at 37 °C with constant shaking for 24 h. Aliquots were collected at 0, 1, 2, 3, 4, 8, and 20 h, serially diluted in saline, and plated in triplicate on LB agar using three drops of 50 µL per dilution. The plates were incubated at 37 °C for 24 h to determine colony-forming unit (CFU) counts.
The results were plotted as Log CFU/mL versus time (h). […] A bactericidal effect was determined when the initial inoculum was reduced by three or more logarithmic units.

[5] = affinity towards eukaryotic and prokaryotic membranes; cited from earlier work
Text: (§5) Peptide 6.2 (P6.2) is a de novo designed antimicrobial peptide, with an amphipathic alfa helical structure.

mice erythrocytes = details: cited from earlier work
Text: as §5

[6] = test system: P. aeruginosa strain PA01; details: sub-MIC concentrations, reference strain PAO1; cited from earlier work
Text: Biofilms are complex bacterial communities characterized by extensive intercellular interactions. Biofilm-associated bacteria, including P. aeruginosa, are commonly implicated in chronic infections that can persist for years. As such, managing biofilm-associated infections has become a critical focus in antimicrobial therapy, given their resistance to conventional antibiotic concentrations.

[7] = test system: P. aeruginosa strain PA01; details: mice challenged with P. aeruginosa PA01; ref previous work; cited from earlier work
Text: The antimicrobial peptide P6.2 was previously de novo designed as an alpha helix cationic amphipathic molecule. […] In this work, the peptide P6.2 antimicrobial activity and its possible synergy with ...

GLLRKWGKKWKEFLRRVWK-NH2 [Peptide P6.2]
LogCC50 [1]: 2.100 | CC50 (cytotoxic concentration 50%) ([1]; 24 h): 125.8 µg/mL | LogCC50 [2]: 2.188 | CC50 (cytotoxic concentration 50%) ([2]; 24 h): 154.1 µg/mL | biofilm inhibitory activity (P. aeruginosa M13513 [3]): did not show anti-biofilm activity | interaction with meropenem (P. aeruginosa M13513 [4]): synergism | membrane selectivity [5]: selectivity for bacterial membranes | erythrocytes lysis (mice erythrocytes): less than 10% | anti-biofilm activity [6]: did not display anti-biofilm activity | effect in murine acute lung infection model [7]: anti-inflammatory effects

— article PMC11940343, “In Vitro and In Vivo Evaluation of the De Novo Designed Antimicrobial Peptide P6.2 Against a KPC-Producing P. aeruginosa Clinical Isolate” (Biomolecules, 2025)
